These are literature values, as cited in patent publication US12251467B2, “Vaginal hydrogel for delivery of therapeutics” (priority 2018, dated 2025).

SMILES strings stand for the structures. ≈ marks a conversion by molar mass, not a printed value.

In the case of `Cc1ncc([N+](=O)[O-])n1CCOC(=O)c1ccccc1` [metronidazole benzoate], the solubility in water is 100 µg/mL (≈ 363 µM).
